Data published in patent publication US8278037B2, “N-acetylgalactosamine transferases and nucleic acids encoding the same” (National Institute of Advanced Industrial Science and …, priority 2002, dated 2012).

Experiments:
Type in all cases: biochemical
[1] = target: T1, NGalNAc-T1 (Homo sapiens, UniProt Q76KP1); test: Requirements of divalent cations in the activity
T1 sequence (Q76KP1 62-1039): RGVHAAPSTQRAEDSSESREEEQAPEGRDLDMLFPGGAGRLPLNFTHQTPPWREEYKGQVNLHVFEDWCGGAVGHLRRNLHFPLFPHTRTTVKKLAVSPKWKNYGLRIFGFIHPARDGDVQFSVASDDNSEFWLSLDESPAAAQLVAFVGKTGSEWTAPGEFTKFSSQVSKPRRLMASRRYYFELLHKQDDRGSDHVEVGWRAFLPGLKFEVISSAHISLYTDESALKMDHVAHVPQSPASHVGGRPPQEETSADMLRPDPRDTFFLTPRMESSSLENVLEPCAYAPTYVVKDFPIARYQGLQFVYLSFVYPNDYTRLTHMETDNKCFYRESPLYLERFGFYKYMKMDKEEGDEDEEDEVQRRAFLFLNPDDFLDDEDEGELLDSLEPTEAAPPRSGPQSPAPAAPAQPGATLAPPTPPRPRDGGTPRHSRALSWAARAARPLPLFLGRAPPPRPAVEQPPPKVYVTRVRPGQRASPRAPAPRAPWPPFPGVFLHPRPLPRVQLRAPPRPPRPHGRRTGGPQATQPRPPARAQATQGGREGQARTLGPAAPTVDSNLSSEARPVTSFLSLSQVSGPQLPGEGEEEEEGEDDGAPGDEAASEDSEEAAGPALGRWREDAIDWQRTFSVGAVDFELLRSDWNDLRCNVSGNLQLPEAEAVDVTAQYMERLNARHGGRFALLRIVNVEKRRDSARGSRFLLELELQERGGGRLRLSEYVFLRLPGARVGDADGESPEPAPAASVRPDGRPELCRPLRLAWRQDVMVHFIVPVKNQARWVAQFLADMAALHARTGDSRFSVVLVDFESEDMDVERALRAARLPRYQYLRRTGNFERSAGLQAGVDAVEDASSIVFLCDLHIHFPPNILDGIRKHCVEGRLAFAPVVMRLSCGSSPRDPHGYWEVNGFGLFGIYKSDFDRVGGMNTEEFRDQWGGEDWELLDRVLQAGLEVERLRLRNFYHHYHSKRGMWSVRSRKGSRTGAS
From the text: (§1) In addition, the value (263.21 dpm) of MES (pH 6.75) was adopted as a blank value in the case of a non-enzyme. Further, when pH of HEPES buffer was 7.4 for NGalNAc-T1 and 6.75 for NGalNAc-T2, the highest value was shown. […] Hereinafter, MES (pH 6.5) was used in each of experiments.
(§2) Generally, glycosyl transferases require frequently divalent cations. The activity of each enzyme was studied by adding various divalent cations. Consequently, the high values were represented when Mn^2+ in NGalNAc-T1, and Mg^2+, Mn^2+ and Co^2+ in NGalNAc-T2 were added (see Table 5). […] From the above results, it was explained that both enzymes require divalent cations.

[2] = target: T2, NGalNAc-T2 (Homo sapiens, UniProt Q6L9W6, K411R); test: Requirements of divalent cations in the activity
From the text: as §1, §2

[3] = target: T1, NGalNAc-T1; test: Search for acceptor substrates, each acceptor by itself; settings: acceptor 10 nmol/20 μl by itself
Description: (§3) The acceptor substrates were prepared so that each of Gal-α-pNp, Gal-β-oNp, GalNAc-α-Bz, GalNAc-β-pNp, GlcNAc-α-pNp, GlcNAc-β-pNp, Glc-α-pNp, Glc-β-pNp, GlcA-β-pNp, Fuc-α-pNp, Man-α-pNp (thereinbefore, CALBIOCHEM Co.), Xyl-α-pNp, Xyl-β-pNp (thereinbefore, SIGMA Co.) was included in 2.5 nmol/20 μl. Further, the solutions of various donor substrates (UDP-GalNAc, UDP-GlcNAc, UDP-Gal, GDP-Man, UDP-GlcA, UDP-Xyl and GDP-Fuc, thereinbefore, SIGMA Co.) are shown in Table 3.
(§4) All of reaction times were 16 hours. After reaction, non-reactive acceptor substrates with radioactivity were removed with SepPack C18 column (Waters CO.), and radioactivity from donor substrates integrated into acceptor substrates was determined with a liquid scintillation counter.
(§5) Further, in order to investigate acceptors, reactions were performed using each acceptor (10 nmol/20 μl) by itself. As a result, significant radioactivity was detected in the case of GlcNAc-β-pNp (NGalNAc-T1: 256.26 dpm, NGalNAc-T2: 1221.22 dpm). Based on the above results, it was explained that both of NGalNAc-T1 and NGalNAc-T2 are glycosyl transferases capable of transferring GalNAc to GlcNAc-T.

[4] = target: T2, NGalNAc-T2; test: as above; settings: acceptor 10 nmol/20 μl by itself
Description: as §3, §4, §5

[5] = target: T1, NGalNAc-T1; test: Assay for acceptor substrates of glycosyl-transferase activities (GalNAc-T assay, HPLC); settings: Table 6, O-glycan type acceptors 500 μM; GlcNAcβ-Bz = 100
Description: (§6) For the reaction of GalNAc-T assay, 50 mM MES buffer (pH 6.5) containing 0.1% triton X-100, 1 mM UDP-GalNAc, 10 mM MnCl2 and 500 μM each acceptor substrate was used. A 10 μl of enzyme solution for 20 μl of each reaction mixture were added and incubated at 37° C. for various periods. After the incubation the mixture was filtrated with Ultrafree-MC column (Millipore, Bedford, Mass.), and 10 μl aliquot was subjected to reversed-phase high performance liquid chromatography (HPLC) on an ODS-80Ts QA column (4.6×250 mm; Tosoh, Tokyo, Japan). A 0.1% TFA/H2O with 12% acetonitrile was used as a running solution. An ultraviolet spectrophotometer (absorbance at 210 nm), SPD-10AVP (Shimazu, Kyoto, Japan) was used for detection of the peaks. When the pyridyl amino-labeled oligosaccharides were utilized as acceptor substrates, 50 nM substrates were added into the reaction mixtures. For the analyses of the products derived from pyridyl amino labeled oligosaccharides, 100 mM acetic acid/triethylamine (pH4.0) was used as a running solution and the products were eluted with a 30-70% gradient of 1% 1-butanol in running solution at a flow rate of 1.0 ml/min at 55° C.
(§7) To investigate the specificity for acceptor substrates, N- and O-glycans containing GlcNAc on their non-reducing termini were utilized.

[6] = target: T2, NGalNAc-T2; test: as above; settings: Table 6, O-glycan type acceptors 500 μM; GlcNAcβ-Bz = 100
Description: as §6, §7

[7] = target: T1, NGalNAc-T1; test: Search for donor substrates, radioactive glycosyltransferase assay; settings: mixed mono-saccharide acceptor substrates, 16 hours
Description: (§8) 15 μg of pFLAG-NGalNAc-T1 or pFLAG-NGalNAc-T2 was induced into 2×10^6 of COS-1, cells which were cultured overnight in DMEM (Dulbecco's modified Eagle's medium) including 10% FCS (fetal calf serum), using Lipofectamine 2000 (Invitrogen Co.) as a protocol provided by the same company. A supernatant of 48-72 hours was collected. The supernatant was mixed with NaN3 (0.05%), NaCl (150 mM), CaCl2 (2 mM) and an anti-M1 resin (Sigma Co.) (50 μl), and the mixture was stirred overnight at 4° C. The solution of reaction mixture was centrifuged (3000 rpm, 5 min, 4° C.) to collect a pellet. The pellet was combined with 900 μl of 2 mM CaCl2/TBS and re-centrifuged (2000 rpm, 5 min, 4° C.), after which the pellet was suspended in 200 μl of 1 mM CaCl2/TBS to give a sample for assaying activity (NGalNAc-T1 or NGalNAc-T2 enzyme solution).
(§9) A search for a donor substrate of the enzyme of the present invention was performed on various mono-saccharide acceptor substrates, using […] of enzyme solution and various acceptor substrates.
as §3, §4

[8] = target: T2, NGalNAc-T2; test: as above; settings: mixed mono-saccharide acceptor substrates, 16 hours
Description: as §8, §9, §3, §4

[9] = divalent cation etc. added, MES (pH 6.5)
[10] = divalent cation etc. added, MES (pH 6.5), blank 263.21 subtracted

Row | Compound | Incorporation of radioactivity (A) [1, 9] [dpm] | (A) − (B) [1, 10] [dpm] | Incorporation of radioactivity (A) [2, 9] [dpm] | (A) − (B) [2, 10] [dpm] | also measured
1 | [Ca+2].[Cl-].[Cl-] [CaCl2] | 230.78 | −32.43 | 217.83 | −45.38 | –
2 | O=S(=O)([O-])[O-].[Cd+2] [CdSO4] | 203.39 | −59.82 | 217.92 | −45.29 | –
3 | [Cl-].[Cl-].[Co+2] [CoCl2] | – | – | – | – | (A) − (B) ([1]; pH 6.5): −22.30 dpm; Incorporation of radioactivity (A) ([1]; pH 6.5): 240.91 dpm; enzyme activity on adding divalent cation, in words [2]: high values; (A) − (B) ([2]; pH 6.5): 867.42 dpm; Incorporation of radioactivity (A) ([2]; pH 6.5): 1130.63 dpm
4 | [Cl][Cu][Cl] [CuCl2] | 278.77 | 15.56 | 218.35 | −44.86 | –
5 | O=C(O)CN(CCN(CC(=O)O)CC(=O)O)CC(=O)O [EDTA] | 242.38 | −20.83 | 235.28 | −27.93 | –
6 | CC(=O)N[C@H]1[C@H](Oc2ccc([N+](=O)[O-])cc2)O[C@H](CO)[C@@H](O)[C@@H]1O [GlcNAc-β-pNp] | – | – | – | – | radioactivity detected [3]: 256.26 dpm; radioactivity detected [4]: 1221.22 dpm
7 | CC(=O)NC1C(OC2C(O)C(CO)OC(Oc3ccc([N+](=O)[O-])cc3)C2NC(C)=O)OC(CO)C(O)C1O (centres unmarked) [GlcNAcβ1-3GalNAcα-pNp] | – | – | – | – | Relative activity (%) [5]: 20.0%; Relative activity (%) [6]: 32.3%
8 | CC(=O)N[C@H]1[C@H](OC[C@H]2O[C@H](Oc3ccc([N+](=O)[O-])cc3)[C@H](NC(C)=O)[C@@H](O[C@@H]3O[C@H](CO)[C@H](O)[C@H](O)[C@H]3O)[C@H]2O)O[C@H](CO)[C@@H](O)[C@@H]1O [GlcNAcβ1-6(Galβ1-3)GalNAcα-pNp] | – | – | – | – | Relative activity (%) [5]: 15.2%; Relative activity (%) [6]: 11.4%
9 | CC(=O)N[C@H]1[C@@H](Oc2ccc([N+](=O)[O-])cc2)O[C@H](CO[C@@H]2O[C@H](CO)[C@@H](O)[C@H](O)[C@H]2NC(C)=O)[C@H](O)[C@@H]1O [GlcNAcβ1-6GalNAcα-pNp] | – | – | – | – | Relative activity (%) [5]: 190.7%; Relative activity (%) [6]: 220.4%
10 | CC(=O)N[C@H]1[C@H](OCc2ccccc2)O[C@H](CO)[C@@H](O)[C@@H]1O [GlcNAcβ-Bz] | – | – | – | – | Relative activity (%) [5]: 100%; Relative activity (%) [6]: 100%
11 | CC(=O)N[C@H]1[C@@H](OP(=O)(O)OP(=O)(O)OC[C@H]2O[C@@H](n3ccc(=O)[nH]c3=O)[C@H](O)[C@@H]2O)O[C@H](CO)[C@H](O)[C@@H]1O [UDP-GalNAc, UDP-N-acetyl-D-galactosamine] | – | – | – | – | activity with donor substrate (radioactivity integrated into acceptor substrates) [7]: highest activity; activity with donor substrate (radioactivity integrated into acceptor substrates) [8]: highest activity
12 | O=C(O)[C@H]1O[C@H](OP(=O)(O)OP(=O)(O)OC[C@H]2O[C@@H](n3ccc(=O)[nH]c3=O)[C@H](O)[C@@H]2O)[C@H](O)[C@@H](O)[C@@H]1O [UDP-GlcA] | – | – | – | – | activity with donor substrate (radioactivity integrated into acceptor substrates) [7]: little background; activity with donor substrate (radioactivity integrated into acceptor substrates) [8]: little background

More lines, main results first:

Row | Incorporation of radioactivity (A) [1, 9] [dpm] | (A) − (B) [1, 10] [dpm] | Incorporation of radioactivity (A) [2, 9] [dpm] | (A) − (B) [2, 10] [dpm] | Compound | also measured
13 | 256.36 | −6.85 | 3124.16 | 2860.95 | [Cl-].[Cl-].[Mg+2] [MgCl2] | enzyme activity on adding divalent cation, in words [2]: high values
14 | 519.47 | 256.26 | 1484.43 | 1221.22 | [Cl][Mn][Cl] [MnCl2] | enzyme activity on adding divalent cation, in words [1]: high values; enzyme activity on adding divalent cation, in words [2]: high values
15 | 210.29 | −52.92 | 187.59 | −75.62 | [Cl-].[Cl-].[Zn+2] [ZnCl2] | –
